# Measurements reported in US6818621B2, “Osteopontin-derived chemotactic and inhibitory agents and uses therefor” (Children's Medical Center Corporation, priority 1999, dated 2004).
# Marks after values point to notes of the source that are not given here. Where no end group is shown, it is not given here.
# What was measured:
# [1] = tested on: MDA-MB-231 cells (CD44+ human breast adenocarcinoma cells); experiment: Chemotactic chamber (Boyden) assay, migration through polycarbonate filters; format: cell-based; conditions: for MI buffer: cells migrating in response to peptide divided by cells migrating in response to buffer; for mean number of migrating cells per six random high powered fields: Table 2
# Method: Each peak was then tested for mediation of chemotaxis or for its ability to inhibit OPN mediated chemotaxis using the chemotactic assay as follows (see e.g., Weber et al. (1996) Science 271:509-512). Briefly, uncoated polycarbonated filters (pore size […] ) were used to separate the upper and lower chambers of chemotactic wells. 1×10^3 MDA-MB-231 cells (CD44^+human breast adenocarcinoma cells) were added to the upper chamber and incubated in the presence or absence of the indicated 50 pmols peptide. After 4 hours, the filters were removed, fixed in methanol arid stained with hematoxylin and eosin. Cells which have responded to the peptide, migrate to various areas of the lower surface and can be counted microscopically. Each data point is reported as the mean number of migrating cells per random high power field.
# Peptide 51 was identified as being chemotactic. The peptide was sequenced using a gas-phase sequenator and determined to have the sequence LVLDPK (SEQ ID NO:1). To confirm that chemotaxis was due to this peptide, a 16 amino acid peptide spanning the chemotactic sequence in OPN was synthesized and tested for its chemotactic properties. The resulting peptide, SP64 has the sequence KFHSHKDKLVLDPKSK (SEQ ID NO:2) and containing the chemotactic sequence from residues 9-14. 2×10^4 MDA-MB-231 cells were assayed for chemotactic response to the indicated peptides as described above. Each data point is reported as the mean number of migrating cells per six random high powered fields ± standard error of the mean. Each experiment was repeated four times.
# To test the amino acid specificity for chemotactic response several substitutions were created in the chemotactic sequence and the new peptides tested for their ability to induce chemotaxis. Data are expressed as migratory index (cells migrating in response to peptide/cells migration in response to LVLDPK, SEQ ID NO:1).
# (§1) To evaluate the potential of peptide analogues to inhibit OPN induced chemotaxis, 100 nmoles of peptide was added to the lower compartment and the response of these cells to OPN was determined as described. MI(buffer) was calculated by dividing the number of cells migrating in response to peptide by the number of cells migrating in response to buffer. MI(inhibitory) equals the number of cells migrating towards OPN in the presence of buffer divided by the number migrating towards OPN in the presence of peptide.
# MDA-MB-231 cells [2] = experiment: Inhibition of OPN induced chemotaxis in the chemotactic chamber assay; format: cell-based, human; conditions: for MI inhibitory: Table 4, 100 nmoles of peptide, cells migrating towards OPN in presence of buffer divided by number migrating towards OPN in presence of peptide
# Method: as §1
# MDA-MB-231 cells [3] = experiment: Apoptosis by TUNEL (In situ Cell Death Detection Kit); format: cell-based, human; conditions: 100 nM, 12 hours; for increase in apoptosis as compared to OPN: TUNEL
# Method: (§2) One million MDA-MB-231 cells were incubated with 100 nM of the OPN, LVVDPK (SEQ ID NO:8), Ac-MLDP (SEQ ID NO:23) or Ac-HKDKMLDP (SEQ ID NO:24) in DME containing 10% FBS in a humidified atmosphere of 5% CO2 at […]. After 12 hours, Caspase 8 and the % of apoptotic cells were determined. Caspase was determined by a fluorescent assay using Chemicon's FLICE/Caspase-8 Fluorometric Protease Assay Kit as described by the manufacturers. Apoptosis was determined using TUNEL using the “In situ Cell Death Detection Kit” (Boehringer-Mannheim, Germany).
# Caspase 8 = experiment: FLICE/Caspase-8 Fluorometric Protease Assay; format: cell-based, human; conditions: 100 nM, 12 hours, MDA-MB-231 cells
# Method: as §2
# [4] = tested on: Peritoneal macrophages, fibroblasts or osteoblasts; experiment: Apoptosis of non-tumor cells treated with PepM; format: cell-based
# breast tumor cells = experiment: Nitric oxide production, nitrate in culture supernatants (Griess reagents); format: cell-based; conditions: 12 hours after incubation
# Method: The production of nitric oxide (NO) by the breast tumor cells was assessed 12 hours after incubation in the presence of pepL by measuring the accumulation of nitrate in culture supernatants. Griess reagents were used as described by Hwang et al. (1993).
# [5] = tested on: cells recruited into the peritoneum; experiment: In vivo chemotaxis after injection of peptide into the peritoneal cavity, lavage and flow cytometry; design: species or system C57 black mice; conditions: coinjected with the chemotactic agent
# peritoneal exudate cells = experiment: In vivo cellular migration after intraperitoneal injection of osteopontin, peritoneal exudate flow cytometry; design: species or system Mice
# Method: Mice were injected intraperitoneally with varying dosages of K7 osteosarcoma-derived osteopontin. All injection volumes were 200 μl. Injections of vehicle alone (PBS) served as negative controls and vehicle plus 20 μg lipopolysaccharide (LPS) injections served as positive controls for elicitation of peritoneal exudates.
# Mice were sacrificed by CO2-asphyxiation at varying times following injection. Immediately after sacrifice, peritoneal exudate was recovered by intraperitoneal injection and recovery of 10 mL PBS. The lavage procedure was performed twice on each mouse. Following this, red blood cells were lysed by hypotonic lysis with ACK lysis buffer (0.15 M NH4Cl, 1.0 mM KHCO3, 0.1 mM Na2EDTA, pH 7.4) for 5 minutes at room temperature, and the preparation was washed in DMEM, 5% FBS. Cells were resuspended in DMEM, 5% FBS for fluorescent antibody staining.
# Each sample of cells to be analyzed for specific surface markers was suspended in DMEM, 5% FBS at a concentration of 0.2 to 1 million cells in 50 μl. Fluorescence-labeled antibodies were added at 1 μg/1×10^6 cells, and incubated with the cells for 30 minutes at 4° C. Samples were washed twice with 200 μl of PBS following antibody staining and fixed with 500 μl of 2% paraformaldehyde in PBS. Peritoneal exudate cells were analyzed by dual-color flow cytometry for expression of CD44 (PE), CD 11 b (Mac-1, FITC, macrophage marker), B220 (FITC, B-cell marker), and CD3 (FITC, T-cell marker). All antibodies were purchased from PharMingen and flow cytometric analysis was done using a Coulter EPICS flow cytometer. Controls for non-specific binding and single color controls were included.
# To further characterize the effects of osteopontin on in vivo cellular migration, a time course experiment was performed using an osteopontin dosage that elicited peak levels of infiltration. The total cellular response to osteopontin administration peaked sharply at 4 to 6 hours. This is likely to be due to a high rate of clearance from the peritoneal cavity.
# [6] = tested on: cells recruited into the peritoneum; experiment: In vivo chemotaxis after injection of peptide into the peritoneal cavity, lavage and flow cytometry; design: species or system C57 black mice; conditions: 25 nmols i.p., 6 hours, normalized to PBS-injected mouse, average of 6 mice
# Method: Since the peptide LVLDPK (SEQ ID NO:1) was chemotactic to tumor cells and macrophages in vitro, we tested whether the peptide was chemotactic in vivo. 25 nmols of the peptide were injected into the peritoneal cavity of C57 black mice. After six hours the cells recruited into the peritoneum were recovered by lavage and identified by flow cytometry. Titration of soluble peptides into the peritoneum induces a cellular infiltrate in a dose dependent manner. The induction ratio is the number of cells of a particular lineage recovered from the peritoneum of a peptide-injected mouse (e.g., 6 hours after injection) normalized for each experiment to the number of cells of the same lineage recovered from the peritoneum of a PBS-injected mouse. Cell numbers for PBS-injected mice ranged from […] to 646,000 cells total; 182,300 to 325,000 CD44^+ cells; 224,000 to 496,000 […] cells; 31,300 to 76,000 B220^+ cells; 18,100 to 21,100 CD3^+ cells), representing the induction of macrophages (Mac-1^+), B cells (B220^+), and T cells (CD3^+). Values represent an average of 6 mice.
# macrophage = experiment: Inhibition of macrophage recruitment by osteopontin, C5a and fibronectin; conditions: C5a and by fibrorectin
substance,measurement,setting,value
Acetyl-HKDKMLDP (Ac-HKDKMLDP) [pepM],MI buffer,[1]; Table 4,0.8
same,MI inhibitory,MDA-MB-231 cells [2],2
same,apoptosis (in words),MDA-MB-231 cells [3],activation of apoptosis
same,increase in apoptosis as compared to OPN,MDA-MB-231 cells [3],~120%
same,increase In Caspase 8 activity,Caspase 8,~80%
same,apoptosis of non-tumor cells,[4],did not undergo apoptosis
Acetyl-MLDP (Ac-MLDP) [pepL],MI buffer,[1]; Table 4,1
same,MI inhibitory,MDA-MB-231 cells [2],2
same,apoptosis (in words),MDA-MB-231 cells [3],activation of apoptosis
same,increase in apoptosis as compared to OPN,MDA-MB-231 cells [3],80%
same,increase In Caspase 8 activity,Caspase 8,~65%
same,NO production,breast tumor cells,increased NO production
same,effect on chemotactic response to OPN of LVLDPK in vivo,[5],totally abolished the chemotactic response
LVVDPK (OTHER INFORMATION: Description of Artificial Sequence:Synthetic Peptide) [pepA′],MI buffer,[1]; Table 4,9
same,MI,"[1]; Table 4, migratory index",1
same,MI inhibitory,MDA-MB-231 cells [2],8
same,apoptosis (in words),MDA-MB-231 cells [3],virtually undetectable
same,Caspase 8 activity (in words),Caspase 8,virtually undetectable
"OPN: osteopontin protein; bone OPN in vitro, K7 osteosarcoma-derived osteopontin in Example 3",mean number of migrating cells per six random high powered fields,"[1]; labelled agent in lower chamber, Ab64 in upper chamber",36 cells per six random high powered fields
same,mean number of migrating cells per six random high powered fields,"[1]; labelled agent in lower chamber, OPN in upper chamber",16 cells per six random high powered fields
same,mean number of migrating cells per six random high powered fields,"[1]; labelled agent in lower chamber, PBS in upper chamber, 2×10^4 cells",214 cells per six random high powered fields
same,mean number of migrating cells per six random high powered fields,"[1]; labelled agent in lower chamber, SP64 in upper chamber",187 cells per six random high powered fields
same,mean number of migrating cells per six random high powered fields,"[1]; labelled agent in lower chamber, pep 51 in upper chamber",44 cells per six random high powered fields
same,mean number of migrating cells per six random high powered fields,"[1]; labelled agent in upper chamber, PBS in lower chamber",23 cells per six random high powered fields
same,chemotactic response of MDA-MB231 (in words),"[1]; p<0.01, 200 ng of bone OPN",stimulated the chemotactic response
same,number of CD3+ and B220+ cells,peritoneal exudate cells; 6 hours after injection,only marginally elevated
same,number of Mac-1+ cells in the infiltrate,"peritoneal exudate cells; 6 hours after injection, over basal levels",increased fivefold over basal levels
same,peritoneal cells recovered,peritoneal exudate cells; OPN alone,1.16 million cells
same,number of CD44+ Mac1+ cells,peritoneal exudate cells; at a dose around 7 μg,nearly sixfold reduction
same,dose of peak response of the cellular infiltrate,"peritoneal exudate cells; intraperitoneal, 6 hours after injection",around 13 μg
same,cellular infiltrate (in words),"peritoneal exudate cells; titration into the peritoneum, 6 hours after injection",dose dependent increase
same,"induction ratio, Total",[6],11.3
same,"induction ratio, Total CD44",[6],9.6*
same,"induction ratio, B-lymphocytes",[6]; B220+,1.2
same,"induction ratio, T-lymphocytes",[6]; CD3+,1
same,"induction ratio, Monocytes",[6]; Mac-1+,10.4*
VLEP (OTHER INFORMATION: Description of Artificial Sequence:Synthetic Peptide) [pepJ′],Migratory Index,"[1]; Table 3, cells migrating in response to peptide/cells migration in response to LVLDPK",0.1
same,inhibition of chemotaxis by peptide (in words),MDA-MB-231 cells [2]; migratory index against peptide 51,inhibitory for chemotaxis
same,inhibition of macrophage recruitment,macrophage,inhibits macrophage recruitment
